The record followed here is ChEMBL document CHEMBL1201862, “PubChem BioAssay data set” (2004).

The nature of assay [1]: IGROV1 ovarian cancer cell cytotoxicity, dose response, PAX8 inhibitor project, plate reader, dry powder samples (AID 743043). It counts as functional, cell-based. Conditions: IGROV-1.
The nature of assay [2]: PAX5 activity inhibitors, dose response, selectivity assay for PAX8 inhibitor project, cell-based, plate reader, dry powder samples (AID 743047).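 Also: HEK293 cells carrying a Pax5 driven CD19 promoter luciferase reporter; potency of inhibitors that lower reporter luminescence.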 It counts as functional.
Assay [3] in a line: PAX2 cell-based inhibition, dose response, selectivity assay for PAX8 inhibitor project, plate reader, dry powder samples (AID 743048).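 Also: HEK293 cells carrying a WT1 promoter luciferase reporter driven by expressed Pax2; potency is for inhibition of Pax2 driven reporter signal.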 It counts as functional.
In assay [4] the target is Paired box protein Pax-8 (Homo sapiens, UniProt Q06710). Kind of assay: inhibitors of PAX8-driven TPO luciferase reporter, dose response, RMG-I cells, cherry-pick (AID 687027).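 Also: luciferase reporter driven by Pax8 target thyroperoxidase promoter measured by SteadyGlo luminescence.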 It counts as functional, cell-based. On the technique in general: In a reporter assay the amount or activity of a reporter protein is the signal.
The nature of assay [5]: cytotoxicity in OV-90 ovarian cancer cells, dose response, PAX8 inhibitor project, cell-based, plate reader, dry powder, SA8 (AID 743149). It counts as functional.
Assay [6] is described as follows: A2780 ovarian cancer cell cytotoxicity, dose response, cytotoxicity control, plate reader, dry powder samples (AID 743046). It counts as functional, cell-based.
Assay [7] can be described thus: cytotoxicity dependent on PAX8, dose response, cell-based, plate reader, dry powder (AID 743049). It counts as functional.
Assay [8] addresses Heat shock protein HSP 90-alpha (Homo sapiens, UniProt P07900). It counts as functional, organism-based.
Assay [9] is described as follows: Shn3 3'UTR reporter inhibitors, dose response, cell-based, Clone20 osteoblasts, firefly luciferase, cherry-picked (AID 624132).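 Also: firefly luciferase luminescence from reporter carrying the Shn3 3'UTR in osteoblasts.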 It counts as functional.
The nature of assay [10]: IOSE-T80 ovarian epithelial cell cytotoxicity, dose response, cytotoxicity control for PAX8 inhibitor project, plate reader, dry powder samples (AID 743045). It counts as functional, cell-based.
Assay [11] in a line: control 3'UTR Renilla luciferase suppression, dose response, counter-screen for Shn3 inhibitor project, cell-based, Clone20-Shn3RL, cherry-picked (AID 624133). It counts as functional. Background: The purpose of a counterscreen is to sort out artefacts and off-target activity.
Assay [12] can be described thus: HepG2 cell cytotoxicity, dose response, cytotoxicity control for Shn3 inhibitor project, CellTiter-Glo, cherry-picked (AID 624134). It counts as functional, cell-based. On the technique in general: In ATP-based viability assays light output follows the ATP content of the culture.
Assay [13] is described as follows: cytotoxicity in COV434 cells, dose response, cytotoxicity control for PAX8 inhibitor project, cell-based, plate reader, dry powder, SA7 (AID 743145). It counts as functional.
Assay [14] can be described thus: cytotoxicity in OVCAR4 cells, dose response, cytotoxicity control for PAX8 inhibitor project, cell-based, plate reader, dry powder, SA11 (AID 743150). Conditions: OVCAR-4. It counts as functional.
Assay [15] can be described thus: NIH:OVCAR-3 ovarian cancer cell cytotoxicity, dose response, PAX8 inhibitor project, plate reader, dry powder samples (AID 743044). It counts as functional, cell-based.
Assay [16] is described as follows: cytotoxicity in COV362 ovarian cancer cells, dose response, cytotoxicity control for PAX8 inhibitor project, cell-based, plate reader, dry powder, SA12 (AID 743144). It counts as functional.
For assay [17], the system named is HEK293. Kind of assay: inhibitors of LMP1-driven NF-kB reporter, dose response, cell-based, HEK293, luciferase, cherry-pick (AID 588343). It counts as functional. Particulars: Homo sapiens.
In assay [18] the target is Scavenger receptor class B member 1 (Mus musculus, UniProt Q61009). As to the kind of experiment: inhibitors of SR-BI dependent HDL uptake, dose response, ldlA[mSR-BI] CHO cells, fluorescence plate reader, dry powder, set 9 (AID 623880). It counts as functional, cell-based.
Assay [19] in a line: cytotoxicity in ldlA[mSR-BI] CHO cells, dose response, cytotoxicity control for SR-BI HDL uptake inhibitor project, cell-based, CellTiter-Glo, 24 h, powder samples, set 7 (AID 624026). It counts as functional.
Assay [20] is described as follows: A Cell-Based Confirmatory Screen for Compounds that Inhibit VEEV, TC-83 (8). It counts as functional.
Assay [21] concerns the target Arf-GAP with SH3 domain, ANK repeat and PH domain-containing protein 1 (Homo sapiens, UniProt Q9ULH1). It counts as functional.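 Also: biochemical fluorescence polarization dose–response screen measuring inhibition of ASAP1; ASAP1 GAP domain stimulating GTP hydrolysis by truncated human ARF1.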
Assay [22] has as its target Beta-lactamase (Salmonella choleraesuis (strain SC-B67), UniProt Q5J463).
For assay [23], the target named is Beta-lactamase (Pseudomonas aeruginosa, UniProt Q79MP6).
In assay [24] the test system is HeLa. As to the kind of experiment: HeLa cell cytotoxicity, dose response, cytotoxicity control, ATP luminescence, cherry-pick samples (AID 687004). It counts as functional, cell-based. Particulars: Homo sapiens.
The target in assay [25] is Fatty acid synthase (Homo sapiens, UniProt P49327). As to the kind of experiment: FAS thioesterase domain inhibitors, SAR follow-up, biochemical, endpoint fluorescence intensity, powder samples (AID 652164). It counts as functional.
For assay [26], the target named is Protein disulfide-isomerase (Homo sapiens, UniProt P07237). As to the kind of experiment: PDI inhibitors, insulin turbidity readout, confirmation, biochemical, dry powder samples, set 2 (AID 652146).
Assay [27] in a line: ZM109 Env clade C HIV-1 fusion inhibitors, dose response, HeLa effector, CEM target cells, luciferase, cherry-pick (AID 652058). It counts as functional, cell-based.
A short description of assay [28]: HEK293T cell cytotoxicity, dose response, cytotoxicity control for HIV Vif inhibitor project, cherry-picks (AID 652208). It counts as functional, cell-based.
Assay [29] is described as follows: CEM21 lymphoblast cell cytotoxicity, dose response, cytotoxicity control for viral fusion inhibitor project, CellTiter-Glo luminescence, cherry-picked (AID 652042).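 Also: potency for signal decrease meaning cytotoxicity.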 It counts as functional, cell-based.
Assay [30] in a line: inhibitors of HIV Env-driven cell fusion, dose response, cherry-pick (AID 652057). It counts as functional, cell-based.
Assay [31] can be described thus: inhibitors of clade B AD8 Env fusion, dose response, cell-based, cherry-pick (AID 652062).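 Also: luciferase signal from cell-cell fusion driven by HIV-1 clade B AD8 Env; potency is for inhibitors of fusion seen as a drop in luminescence.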 It counts as functional.
Assay [32] is described as follows: off-target signal loss in HeLa-CEM21 co-culture – HeLa F-luc CTL cells, cherry-picked, counter-screen for HIV-1 Env fusion inhibitor project, dose response (AID 652040).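 Also: potency for signal decrease marking cytotoxic or nonspecific inhibition.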 It counts as functional, cell-based.
Assay [33] in a line: non-specific cell cytotoxicity, dose response, cytotoxicity control for PAX8 inhibitor project, plate reader, dry powder samples (AID 743021). It counts as functional, cell-based.
The target in assay [34] is T1, Microphthalmia-associated transcription factor (Homo sapiens, UniProt O75030).
T1 sequence (O75030 whole entry): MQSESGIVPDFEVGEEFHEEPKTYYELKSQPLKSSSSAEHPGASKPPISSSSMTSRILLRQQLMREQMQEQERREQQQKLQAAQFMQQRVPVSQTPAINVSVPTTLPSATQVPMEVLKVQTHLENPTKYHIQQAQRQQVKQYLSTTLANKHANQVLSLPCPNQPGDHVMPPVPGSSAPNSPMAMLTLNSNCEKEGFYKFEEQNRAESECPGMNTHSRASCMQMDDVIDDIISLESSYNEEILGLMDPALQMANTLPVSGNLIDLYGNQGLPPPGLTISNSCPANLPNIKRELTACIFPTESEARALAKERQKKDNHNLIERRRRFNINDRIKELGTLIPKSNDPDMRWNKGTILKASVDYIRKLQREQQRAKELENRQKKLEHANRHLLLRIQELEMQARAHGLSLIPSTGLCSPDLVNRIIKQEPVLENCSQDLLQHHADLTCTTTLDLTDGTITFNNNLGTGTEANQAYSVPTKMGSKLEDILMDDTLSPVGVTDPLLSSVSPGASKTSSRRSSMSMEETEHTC
As to the kind of experiment: TRPM1 promoter luciferase signal decrease, dose response, MITF inhibitor project, cell-based, SK-MEL-5, cherry-picked, set 3 (AID 493073).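 Also: SK-MEL-5 melanoma cells with luciferase driven by the MITF target TRPM1 promoter.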 It counts as functional.

Calls of active or inactive are those of the source.

Sequence of Paired box protein Pax-8 (Q06710 whole entry): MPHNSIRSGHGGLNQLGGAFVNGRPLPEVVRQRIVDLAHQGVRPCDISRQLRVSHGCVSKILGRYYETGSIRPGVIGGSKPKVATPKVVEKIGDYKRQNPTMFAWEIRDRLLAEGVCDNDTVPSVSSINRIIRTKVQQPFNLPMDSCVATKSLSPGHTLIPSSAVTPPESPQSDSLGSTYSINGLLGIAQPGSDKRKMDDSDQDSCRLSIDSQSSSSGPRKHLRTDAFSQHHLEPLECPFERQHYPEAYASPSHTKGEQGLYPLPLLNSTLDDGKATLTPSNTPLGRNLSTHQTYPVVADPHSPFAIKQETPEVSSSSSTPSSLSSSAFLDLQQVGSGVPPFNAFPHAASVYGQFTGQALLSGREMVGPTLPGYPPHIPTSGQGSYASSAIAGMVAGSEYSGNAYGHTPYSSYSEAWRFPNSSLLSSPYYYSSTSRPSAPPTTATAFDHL
Sequence of Arf-GAP with SH3 domain, ANK repeat and PH domain-containing protein 1 (Q9ULH1 whole entry, the tested form may be a part): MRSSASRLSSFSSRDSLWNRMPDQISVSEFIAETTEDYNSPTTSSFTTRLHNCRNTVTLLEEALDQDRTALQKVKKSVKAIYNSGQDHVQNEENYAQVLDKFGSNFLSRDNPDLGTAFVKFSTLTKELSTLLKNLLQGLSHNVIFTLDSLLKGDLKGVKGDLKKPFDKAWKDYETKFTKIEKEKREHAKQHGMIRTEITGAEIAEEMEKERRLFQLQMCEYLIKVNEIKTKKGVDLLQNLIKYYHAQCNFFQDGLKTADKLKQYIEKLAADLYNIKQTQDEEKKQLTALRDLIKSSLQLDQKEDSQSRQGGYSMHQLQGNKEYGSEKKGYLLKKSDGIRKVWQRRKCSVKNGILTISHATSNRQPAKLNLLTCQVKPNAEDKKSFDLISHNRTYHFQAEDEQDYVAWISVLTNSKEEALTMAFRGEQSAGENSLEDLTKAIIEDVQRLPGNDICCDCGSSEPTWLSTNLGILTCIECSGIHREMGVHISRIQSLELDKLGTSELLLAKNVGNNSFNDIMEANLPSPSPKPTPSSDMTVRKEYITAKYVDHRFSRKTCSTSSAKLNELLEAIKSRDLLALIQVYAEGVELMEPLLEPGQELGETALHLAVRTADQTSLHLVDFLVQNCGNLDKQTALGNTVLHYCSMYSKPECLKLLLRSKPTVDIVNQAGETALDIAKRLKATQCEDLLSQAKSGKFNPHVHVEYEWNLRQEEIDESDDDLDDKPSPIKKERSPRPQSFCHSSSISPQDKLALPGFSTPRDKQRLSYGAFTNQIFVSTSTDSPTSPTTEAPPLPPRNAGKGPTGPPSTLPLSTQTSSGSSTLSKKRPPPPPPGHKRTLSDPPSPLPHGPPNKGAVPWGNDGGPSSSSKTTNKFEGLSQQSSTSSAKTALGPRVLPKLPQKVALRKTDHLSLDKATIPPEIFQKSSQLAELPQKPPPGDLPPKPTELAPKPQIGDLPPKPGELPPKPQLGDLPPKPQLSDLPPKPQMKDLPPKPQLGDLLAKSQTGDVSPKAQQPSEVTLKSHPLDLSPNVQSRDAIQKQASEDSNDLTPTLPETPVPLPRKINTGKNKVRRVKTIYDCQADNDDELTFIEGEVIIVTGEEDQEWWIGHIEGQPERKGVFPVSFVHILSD
Sequence of Scavenger receptor class B member 1 (Q61009 whole entry): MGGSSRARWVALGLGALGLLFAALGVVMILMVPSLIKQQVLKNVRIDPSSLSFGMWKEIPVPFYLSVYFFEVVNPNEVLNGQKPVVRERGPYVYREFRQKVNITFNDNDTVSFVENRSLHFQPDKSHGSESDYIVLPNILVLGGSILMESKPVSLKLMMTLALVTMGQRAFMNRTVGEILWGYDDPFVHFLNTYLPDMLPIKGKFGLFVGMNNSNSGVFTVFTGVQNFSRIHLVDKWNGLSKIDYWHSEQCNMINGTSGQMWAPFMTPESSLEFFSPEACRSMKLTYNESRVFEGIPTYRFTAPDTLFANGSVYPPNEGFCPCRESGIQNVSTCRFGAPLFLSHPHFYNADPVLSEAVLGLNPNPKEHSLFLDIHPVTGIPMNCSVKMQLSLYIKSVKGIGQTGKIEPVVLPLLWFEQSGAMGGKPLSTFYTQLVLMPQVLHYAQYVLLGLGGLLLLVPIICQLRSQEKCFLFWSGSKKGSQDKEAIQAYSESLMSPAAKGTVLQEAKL
Sequence of Beta-lactamase (Salmonella choleraesuis (strain SC-B67), UniProt Q5J463) (Q5J463 whole entry): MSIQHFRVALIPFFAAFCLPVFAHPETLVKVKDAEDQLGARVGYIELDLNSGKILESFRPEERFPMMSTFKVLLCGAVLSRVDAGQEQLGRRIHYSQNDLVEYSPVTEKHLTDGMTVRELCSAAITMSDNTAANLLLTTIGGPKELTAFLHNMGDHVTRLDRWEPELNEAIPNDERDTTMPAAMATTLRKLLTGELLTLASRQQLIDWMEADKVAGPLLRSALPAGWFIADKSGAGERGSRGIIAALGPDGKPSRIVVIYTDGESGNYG
Sequence of Fatty acid synthase (P49327 whole entry, the tested form may be a part): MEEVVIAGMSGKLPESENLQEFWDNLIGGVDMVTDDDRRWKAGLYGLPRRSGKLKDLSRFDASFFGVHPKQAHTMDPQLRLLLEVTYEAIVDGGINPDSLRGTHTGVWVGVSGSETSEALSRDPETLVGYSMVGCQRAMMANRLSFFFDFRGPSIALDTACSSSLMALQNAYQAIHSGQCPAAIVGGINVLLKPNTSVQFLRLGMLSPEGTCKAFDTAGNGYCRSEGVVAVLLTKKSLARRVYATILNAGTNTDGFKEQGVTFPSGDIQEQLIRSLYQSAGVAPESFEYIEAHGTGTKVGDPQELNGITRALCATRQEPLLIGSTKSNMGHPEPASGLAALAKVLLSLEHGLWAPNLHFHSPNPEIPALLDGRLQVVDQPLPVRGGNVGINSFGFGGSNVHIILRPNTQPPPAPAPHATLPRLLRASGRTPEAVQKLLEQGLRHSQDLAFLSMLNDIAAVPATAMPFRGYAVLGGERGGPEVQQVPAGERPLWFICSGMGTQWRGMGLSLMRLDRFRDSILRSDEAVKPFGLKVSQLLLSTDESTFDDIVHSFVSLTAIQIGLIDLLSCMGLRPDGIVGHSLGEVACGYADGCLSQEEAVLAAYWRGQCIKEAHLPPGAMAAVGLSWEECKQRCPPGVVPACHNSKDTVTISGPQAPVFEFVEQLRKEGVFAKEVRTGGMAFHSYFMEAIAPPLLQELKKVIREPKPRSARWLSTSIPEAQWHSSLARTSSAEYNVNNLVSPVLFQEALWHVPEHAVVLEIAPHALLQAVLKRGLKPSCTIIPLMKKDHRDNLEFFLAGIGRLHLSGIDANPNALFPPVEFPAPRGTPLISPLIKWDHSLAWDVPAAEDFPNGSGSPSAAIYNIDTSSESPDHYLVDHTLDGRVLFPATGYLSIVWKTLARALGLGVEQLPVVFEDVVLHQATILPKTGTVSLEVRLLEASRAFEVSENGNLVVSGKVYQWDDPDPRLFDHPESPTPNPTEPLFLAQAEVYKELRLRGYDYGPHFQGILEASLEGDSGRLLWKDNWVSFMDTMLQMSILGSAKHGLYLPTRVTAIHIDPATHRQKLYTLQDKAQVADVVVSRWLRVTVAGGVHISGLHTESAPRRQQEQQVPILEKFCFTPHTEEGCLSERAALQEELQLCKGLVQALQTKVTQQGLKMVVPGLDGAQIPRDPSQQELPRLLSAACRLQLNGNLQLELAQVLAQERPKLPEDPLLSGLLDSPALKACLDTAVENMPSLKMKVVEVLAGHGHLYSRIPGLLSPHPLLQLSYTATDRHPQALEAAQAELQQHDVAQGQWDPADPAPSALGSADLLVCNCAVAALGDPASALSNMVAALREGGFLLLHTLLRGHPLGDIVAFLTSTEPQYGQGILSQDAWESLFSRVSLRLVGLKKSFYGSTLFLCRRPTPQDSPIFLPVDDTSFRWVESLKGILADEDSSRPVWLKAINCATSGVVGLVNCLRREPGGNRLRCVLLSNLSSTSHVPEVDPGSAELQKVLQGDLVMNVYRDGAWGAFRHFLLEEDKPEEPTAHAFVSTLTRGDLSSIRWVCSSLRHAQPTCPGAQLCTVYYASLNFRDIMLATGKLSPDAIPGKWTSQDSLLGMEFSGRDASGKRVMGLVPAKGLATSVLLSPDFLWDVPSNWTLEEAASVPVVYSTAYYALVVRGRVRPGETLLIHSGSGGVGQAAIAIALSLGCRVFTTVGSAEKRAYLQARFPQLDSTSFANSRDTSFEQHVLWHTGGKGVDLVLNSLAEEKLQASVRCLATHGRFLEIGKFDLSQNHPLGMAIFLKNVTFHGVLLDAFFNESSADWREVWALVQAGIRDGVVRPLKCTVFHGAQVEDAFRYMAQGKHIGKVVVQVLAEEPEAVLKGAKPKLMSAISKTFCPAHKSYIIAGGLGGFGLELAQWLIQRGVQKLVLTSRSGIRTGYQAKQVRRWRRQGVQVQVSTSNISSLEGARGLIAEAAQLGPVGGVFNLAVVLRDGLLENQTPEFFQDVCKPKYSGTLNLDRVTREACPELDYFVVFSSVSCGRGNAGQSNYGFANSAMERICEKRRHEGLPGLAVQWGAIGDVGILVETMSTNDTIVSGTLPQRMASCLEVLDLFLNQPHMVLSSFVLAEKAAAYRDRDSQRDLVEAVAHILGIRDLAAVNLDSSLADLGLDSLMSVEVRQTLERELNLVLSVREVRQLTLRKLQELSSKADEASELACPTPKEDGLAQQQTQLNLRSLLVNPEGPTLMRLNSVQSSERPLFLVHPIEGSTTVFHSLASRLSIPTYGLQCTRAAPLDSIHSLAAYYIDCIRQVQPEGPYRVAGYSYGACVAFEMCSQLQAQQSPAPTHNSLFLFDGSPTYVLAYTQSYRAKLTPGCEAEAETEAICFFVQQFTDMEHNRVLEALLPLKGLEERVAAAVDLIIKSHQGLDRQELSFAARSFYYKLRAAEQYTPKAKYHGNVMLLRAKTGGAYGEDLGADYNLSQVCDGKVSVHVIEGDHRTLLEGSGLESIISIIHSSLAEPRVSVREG

In general, AC50 refers to the midpoint of the concentration-response curve, whichever way the signal moves. For `CC(=O)NC(c1ccc(Cl)cc1)c1ccc2cccnc2c1O` (stereo not given), the AC50 in assay [1] was 7.12 µM (active); in [2] it was 2.31 µM (active); in [3], 1.57 µM (active); in assay [4] it was 2.09 µM (active); in assay [5], 5.27 µM (active); in assay [6] it was 20.8 µM (active). For the same compound, the AC50 is 8.52 µM (active) in [7]; 2.68 µM (active) in [8]; 0.299 µM (active) in assay [9]; 4.43 µM (active) in [10]; 0.977 µM (active) in assay [11]; 1.47 µM (active) in assay [12]. The AC50 is 5.09 µM (active) in assay [13]; 18.1 µM (active) in assay [14]; 4.57 µM (active) in [15]; 7.17 µM (active) in [16]; 4.08 µM (active) in assay [17].

In the case of `C[C@@H]1CN([C@H](C)CO)C(=O)c2cc(NC(=O)Nc3ccc(F)cc3)ccc2O[C@H]1CN(C)S(=O)(=O)c1ccc(Cl)cc1`, the AC50 in assay [18] is 0.113 µM (active); in [19], > 70 µM (inactive).

Broadly, the IC50 is the concentration needed to halve the response being measured. `O=c1c2cc([N+](=O)[O-])ccc2nc(C2CCNCC2)n1-c1ccccc1`: the IC50 in [20] is 3.88 µM (active).

For the compound `O=C(COC(=O)c1ccc2c(c1)C(=O)N(c1cccc3ncccc13)C2=O)c1ccc(Cl)cc1`, in assay [21], the IC50 was 1.97 µM (active).

Take `COC(=O)c1sccc1NC(=O)c1ccc(C#N)cc1`: the IC50 in assay [22] and in assay [23] was > 59.6 µM (inactive) each time.

Take `O=C1CCC(C(=O)Nc2cccc(C(F)(F)F)c2)N1` (stereo not given): the AC50 in assay [24] is > 52 µM (inactive).

In the case of `CN(C)S(=O)(=O)c1ccc(-c2csc(NC(=O)C3CCC3)n2)cc1`, the IC50 in [25] is 1.36 µM (active).

As for `C=CCOc1ccc(CN2CCC(CCOc3ccccc3)(C(=O)OCC)CC2)cc1Cl`, the AC50 in [26] is > 30 µM (inactive).

Regarding `OCC1OC(n2cnc3c(NCc4ccco4)ncnc32)C(O)C1O` (stereo not given), the AC50 is 6.03 µM (active) in assay [27]; 2.41 µM (active) in assay [4]; 13.8 µM (active) in assay [28]; 2.94 µM (active) in [29]; 7.32 µM (active) in [30]; 6.9 µM (active) in assay [31]. For the same compound, the AC50 in assay [32] is 36.8 µM (active); in assay [33] it was 1.38 µM (active); in assay [34] it was 3.88 µM (active).
